Reference: US12041939B2, “Enzyme-loaded pollen-mimicking microparticles for organophosphate detoxification of insect pollinators” (priority 2020, dated 2024)
Like-named read-outs stand apart in the source and are kept apart here.

Key:
[1] = format: biochemical; conditions: for relative activity in paraoxon hydrolysis: OPT 0.5 mg ml^−1, 0.5 mM paraoxon, normalized to OPT-PIMs at pH 7.4
[2] = system: AChE; assay: AChE activity assay in homogenized honeybees with paraoxon; format: biochemical, honeybee; conditions: 0.5 mM paraoxon
Description: FIGS. 5A-5F. Characterization of OPT-PIM efficacy through AChE activity assay and bee survival experiments. FIG. 5A is a schematic showing that formation of thiocholine from acetylthiocholine through AChE cleavage can be characterized using 5,5′-dithiobis-2-nitrobenzoic acid (DTNB). DTNB and thiocholine react to form TNB^2-, the absorbance of which can be measured at 412 nm. […] For this experiment, n=9. The positive control is homogenized honeybee cells without any paraoxon treatment; the negative control is homogenized honeybee cells treated with paraoxon but no free OPT or OPT-PIMs treatment. […]. […] FIG. 5E is a plot of exposure to paraoxon (15 μg g^−1 pollen) over 10 days (n=50). FIG. 5F is a plot of exposure to malathion (750 μg g^−1 pollen) over 10 days (n=50). Statistical analysis was performed by using one-way ANOVA tests (FIGS. 5B and 5D). Data are presented as means and error bars represent the standard deviation.
Efficacy and survival studies. The characterization of OPT-PIM efficacy was further validated via quantification of AChE activity when mixed with the above described treatment and paraoxon. […] Acetylthiocholine cleavage via AChE can be used to quantify AChE activity, as the thiocholine product reacts with DTNB to form TNB^2−, which has an absorbance at 412 nm (FIG. 5A). […]

[3] = cited from earlier work
[4] = format: biochemical
Procedure: Further experiments were aimed at better understanding the stability of the detoxifying system under significant thermal stress, as any treatment could experience high summer temperatures when administered to bees. […] Thus, experiments were conducted to determine whether microparticle encapsulation offers any protection from thermal denaturation. […]. […] The foregoing result is important for the potential application of the present design, as it has been shown capable of being administered at elevated temperatures.

[5] = system: bumblebees; assay: bumblebee survival on malathion-contaminated pollen balls; format: in vivo, Bombus impatiens
Description: (§1) FIGS. 5A-5F. Characterization of OPT-PIM efficacy through AChE activity assay and bee survival experiments. FIG. 5A is a schematic showing that formation of thiocholine from acetylthiocholine through AChE cleavage can be characterized using 5,5′-dithiobis-2-nitrobenzoic acid (DTNB). DTNB and thiocholine react to form TNB^2-, the absorbance of which can be measured at 412 nm. […] For this experiment, n=9. The positive control is homogenized honeybee cells without any paraoxon treatment; the negative control is homogenized honeybee cells treated with paraoxon but no free OPT or OPT-PIMs treatment. […] FIG. 5E is a plot of exposure to paraoxon (15 μg g^−1 pollen) over 10 days (n=50). FIG. 5F is a plot of exposure to malathion (750 μg g^−1 pollen) over 10 days (n=50). Statistical analysis was performed by using one-way ANOVA tests (FIGS. 5B and 5D). Data are presented as means and error bars represent the standard deviation.
(§2) Bumblebees consume approximately […] depending on body mass. Based on this figure, pollen balls were initially formed containing 0.432 μg g^−1 paraoxon and 9.383 μg g^−1 malathion to feed without enzyme treatment as a negative control. […] Pollen balls were tested containing 50 μg g^−1 paraoxon over 12 hours to measure the OPT-PIM impact against acute exposure.

[6] = format: biochemical; conditions: room temperature (25° C.)
Procedure: To gauge the time taken for treatment to lose functionality, bioactivity of each group treatment relative to OPT-PIMs was measured over time when kept at room temperature (25° C.). […] OPT-PIMs stored at 4° C. maintained almost 100% activity after 14 d (FIG. 3G). The microparticle's capacity for long-term bioactivity and protein sequestration indicates a practical shelf life of the design. Other enzyme-engineering efforts, such as genetic engineering of the catalytic and binding pockets, introducing additional chemical functionalities, such as disulfide bridges or fluorine moieties, or incorporation of additives such as sugars, polyols, detergents, polymers and amino acids, may improve the catalytic efficiency of OPT and further enhance its storage stability.

[7] = system: bumblebees; format: in vivo, Bombus impatiens
Description: as §1, §2

[8] = cited from earlier work; remark: listed apart in the source
[9] = format: biochemical; conditions: methyl paraoxon, visible nitrophenol formation
Description: Considering the loading efficiency decrease at higher PFCs and the intrinsic value of OPT, 5% was selected as a baseline to test OPT loading in PIMs. OPT presented 88.1% PLE (PLC=4.43%) at 5% PFC and 90.1% PLE (PLC=1.81%) at 2% PFC (FIG. 3C). […]. this dilution offered adequate sucrose to render the solution sufficiently attractive to bumblebees for consumption.

[10] = malathion hydrolysis assay (DTNB); format: biochemical; conditions: OPT 0.5 mg ml^−1, 0.44 mM malathion
[11] = system: bumblebees; assay: contaminated pollen balls fed without enzyme treatment; conditions: no enzyme treatment, after one week
[12] = system: honeybees; conditions: cited from earlier work
[13] = system: acetylcholinesterase (AChE); conditions: versus malathion; cited from earlier work

amidohydrolase phosphotriesterase [free OPT]
relative activity in paraoxon hydrolysis ([1]; pH 4.8): 1.7%
relative activity in paraoxon hydrolysis ([1]; pH 7.4): 49.7%
Km ([1]; paraoxon, in 2 g ml^−1 sucrose): 4.8 mM
maximum velocity (Vmax) ([1]; paraoxon, in 2 g ml^−1 sucrose): 0.13 mM/min
AChE activity retained less than OPT-PIMs-treated samples [2]: 18.8%
Kcat Km^−1 [3]: 7.6e+07 M⁻¹ s⁻¹
relative activity in paraoxon hydrolysis after incubation ([4]; 30° C., relative to OPT-PIMs at 30° C.): half the bioactivity of OPT-PIMs
relative activity in paraoxon hydrolysis after incubation ([4]; 50° C., normalized to OPT-PIMs at 30° C.): 36.5%
relative activity in paraoxon hydrolysis after incubation ([4]; temperature>60° C., normalized to OPT-PIMs at 30° C.): 5.0%
mortality ([5]; 750 μg g^−1 malathion pollen balls, after 5 days): 100%
survival ([5]; microcolonies fed malathion-contaminated pollen patties, within/after 5 days (overview)): 0%
activity retained on storage ([6]; after 7 days): ~30%
activity retained on storage ([6]; after 14 days): < 10%
mortality ([7]; 15 μg g^−1 paraoxon pollen balls, 50 μg ml^−1 OPT treatments, after 5 days): 100%
fatalities ([7]; 50 μg g^−1 paraoxon pollen balls, 12 hours): 62.5%
deactivation temperature ([8]; Co2+ OPT complex, pH 8.0-9.5): 60 °C
temperature at which thermostability is maintained ([8]; Co2+ OPT complex, pH 8.0-9.5): less than 45 °C
activity relative to maximum potential ([8]; pH 7.0): less than half of its maximum potential
OPT concentration sufficient to initiate rapid hydrolysis [9]: 0.5 mg/mL
relative activity in malathion hydrolysis ([10]; pH 4.8): 0.6%
relative activity in malathion hydrolysis ([10]; pH 7.4): 17.1%

CCOP(=O)(OCC)Oc1ccc([N+](=O)[O-])cc1 [paraoxon]
relative AChE activity reduction ([2]; no free OPT or OPT-PIMs treatment (negative control)): ~72%
health effect of contaminated pollen balls ([11]; 0.432 μg g^−1 paraoxon in pollen balls): no health deterioration
oral LD50 for honeybees [12]: 0.0175 μg per bee

CCOC(=O)CC(SP(=O)(OC)OC)C(=O)OCC (centres unmarked) [Malaoxon]
strength of AChE inhibition relative to malathion [13]: 1000 fold

CCOC(=O)CC(SP(=S)(OC)OC)C(=O)OCC (centres unmarked) [malathion]
health effect of contaminated pollen balls ([11]; 9.383 μg g^−1 malathion in pollen balls): no health deterioration
oral LD50 [12]: 0.38 μg/bee
oral LD50 for honeybees [12]: 0.38 μg per bee

CCOP(=S)(OCC)Oc1ccc([N+](=O)[O-])cc1 [parathion]
oral LD50 [12]: 0.175 μg/bee
